Experimental data from patent EP4122917A1, “C2-THIOETHER […] AND TETRAMERS AND USE THEREOF” (priority 2021, dated 2023).
Read-outs that look alike come from different tables or passages of the source.

Tests used:
[1] = system: Pseudotyped vesicular stomatitis virus (VSV) carrying a codon-optimized S protein of the Wuhan SARS-CoV-2 strain; assay type: cell-based; details: read-out: IC50 (µM) Pseudotype VSV (Vero)
in vitro [2] = details: monkey, vero cells
in vitro [3] = details: monkey, vero-e6 cells
in vitro [4] = details: human, a549-ace2-tmprss2 cells
[5] = system: Pseudotyped vesicular stomatitis virus (VSV) carrying a codon-optimized S protein of the Wuhan SARS-CoV-2 strain; assay type: cell-based; details: read-out: IC50 (µM) Pseudotype VSV (A549ACE2-TM PRSS2)

| SMILES | IC50 [1] | CC50 (in vitro [2]) | CC50 at 24 h (in vitro [3]) | CC50 (in vitro [4]) | IC50 [5] |
| --- | --- | --- | --- | --- | --- |
| NCC(=O)NC(CCC(=O)N[C@@H](Cc1c(Sc2ccc([N+](=O)[O-])cc2)[nH]c2ccccc12)C(=O)O)(CCC(=O)N[C@@H](Cc1c(Sc2ccc([N+](=O)[O-])cc2)[nH]c2ccccc12)C(=O)O)CCC(=O)N[C@@H](Cc1c(Sc2ccc([N+](=O)[O-])cc2)[nH]c2ccccc12)C(=O)O [Compound 7a] | 0.23 µM | > 100 µM | > 100 µM | > 100 µM | 2.4 µM |
| NCC(=O)NC(CCC(=O)N[C@@H](Cc1c(Sc2cccc([N+](=O)[O-])c2)[nH]c2ccccc12)C(=O)O)(CCC(=O)N[C@@H](Cc1c(Sc2cccc([N+](=O)[O-])c2)[nH]c2ccccc12)C(=O)O)CCC(=O)N[C@@H](Cc1c(Sc2cccc([N+](=O)[O-])c2)[nH]c2ccccc12)C(=O)O [Compound 7b] | 13 µM | > 100 µM |  | > 100 µM | 6.44 µM |
| CC(=O)c1ccc(Sc2[nH]c3ccccc3c2C[C@H](NC(=O)CCC(CCC(=O)N[C@@H](Cc2c(Sc3ccc(C(C)=O)cc3)[nH]c3ccccc23)C(=O)O)(CCC(=O)N[C@@H](Cc2c(Sc3ccc(C(C)=O)cc3)[nH]c3ccccc23)C(=O)O)NC(=O)CN)C(=O)O)cc1 [Compound 7c] | 1.4 µM | > 100 µM | > 100 µM | > 100 µM | 1.94 µM |
| NCC(=O)NC(CCC(=O)N[C@@H](Cc1c(Sc2ccc(C(F)(F)F)cc2)[nH]c2ccccc12)C(=O)O)(CCC(=O)N[C@@H](Cc1c(Sc2ccc(C(F)(F)F)cc2)[nH]c2ccccc12)C(=O)O)CCC(=O)N[C@@H](Cc1c(Sc2ccc(C(F)(F)F)cc2)[nH]c2ccccc12)C(=O)O [Compound 7d] | 15.1 µM | > 100 µM |  | > 100 µM | 9.35 µM |
| N#Cc1ccc(Sc2[nH]c3ccccc3c2C[C@H](NC(=O)CCC(CCC(=O)N[C@@H](Cc2c(Sc3ccc(C#N)cc3)[nH]c3ccccc23)C(=O)O)(CCC(=O)N[C@@H](Cc2c(Sc3ccc(C#N)cc3)[nH]c3ccccc23)C(=O)O)NC(=O)CN)C(=O)O)cc1 [Compound 7e] | 13.9 µM | > 100 µM |  | > 100 µM | 8.8 µM |
| NCC(=O)NC(CCC(=O)N[C@@H](Cc1c(Sc2ccc(F)cc2)[nH]c2ccccc12)C(=O)O)(CCC(=O)N[C@@H](Cc1c(Sc2ccc(F)cc2)[nH]c2ccccc12)C(=O)O)CCC(=O)N[C@@H](Cc1c(Sc2ccc(F)cc2)[nH]c2ccccc12)C(=O)O [Compound 7f] | 28.4 µM | > 100 µM |  | > 100 µM | 31 µM |
